{
  "source": "paper PMC11172375",
  "about": "“Preclinical Evaluation of Biodistribution and Toxicity of [^211At]PSMA-5 in Mice and Primates for the Targeted Alpha Therapy against Prostate Cancer” (International Journal of Molecular Sciences, 2024)",
  "key": {"[1]": {"experiment": "TLC metabolite analysis of blood samples, mice", "assay_type": "in vivo", "details": "plasma", "procedure": "(§1) Monkeys were anesthetized with intramuscular administration of ketamine (10 mg/kg) and xylazine (0.5 mg/kg) with isoflurane inhalation anesthesia. Planar and Single Photon Emission Computed Tomography (SPECT) imaging was performed in monkeys using a γ-camera system (E-cam, Siemens, Erlangen, Germany) immediately after administration to 1 h and at 3 and 24 h post-administration of [^211At]PSMA-5 (9 MBq/kg), targeting the X-rays emitted from the daughter nuclide ^211Po (energy window: 79 keV ± 20%). Subsequent image analysis was performed by setting the regions of interest using Osirix MD software (Version 13, Pixmeo SARL, Bernex, Switzerland) and PMOD software (Version 3.903, PMOD Technologies, Fällanden, Switzerland). Blood samples were obtained pre-administration and at 1, 3, and 24 h post-administration, followed by euthanasia via bloodletting at 24 h.\nThe blood samples were centrifuged at 3000 rpm for 5 min, and the resulting plasma was mixed with twice the volume of ethanol, then agitated vigorously. The supernatants were analyzed by thin-layer chromatography (TLC)."}, "[2]": {"experiment": "Necropsy and histological evaluation in mice", "assay_type": "in vivo, ICR mice", "procedure": "(§2) [^211At]PSMA-5 was administered intravenously to 25 mice, and its biodistribution was evaluated. For the toxicity study, three doses of [^211At]PSMA-5 (5, 12, and 35 MBq/kg, single dose) or saline were intravenously administered to 10 mice/group for the main evaluation point on day 1, and 5-mice/group for recovery evaluation on day 14, adhering to the ICH M3 (R2) guidelines. The dosage was determined based on our previous study using [^211At]NaAt. The monkeys were monitored for 24 h post-administration of [^211At]PSMA-5 (9 MBq/kg).\n(§3) The brain, salivary gland, thyroid, heart, lungs, liver, kidney, adrenal gland, pancreas, spleen, thymus, stomach, small intestine, large intestine, bladder, prostate, and testes were collected on days 1 or 14 in mice and at 24 h in monkeys. Additionally, the pituitary gland, tongue, trachea, esophagus, mesenteric lymph nodes, epididymis, seminal vesicles, skin, mammary glands, spinal cord, bone, bone marrow (femur), eyeball, and optic nerve were collected from the mice. After fixation, paraffin sections were prepared and stained with hematoxylin and eosin (HE). All the specimens were evaluated by an expert in toxic pathology using an integrated fluorescence microscope (BZ-X810; Keyence Corporation. Osaka, Japan). In mice, the brain, salivary glands, heart, lungs, liver, gallbladder, spleen, kidneys, and testes were weighed according to ICH S4 guideline."}, "[3]": {"experiment": "Biodistribution in ICR mice", "assay_type": "in vivo", "procedure": "as §2, §1\nUrine and feces samples were collected at each time point. Following euthanasia, the brain, thyroid gland, salivary gland, lungs, heart, liver, kidney, spleen, pancreas, stomach, small intestine, large intestine, bladder, testes, and prostate tissues were collected. Organ weights and radiation doses were measured using a γ-counter (model: 2480Wizard2, PerkinElmer) and γ-camera system (E-cam) by appropriate cross-calibration."}, "[4]": {"parameters": "method as in PMID 35553387", "details": "LNCaP xenograft mice, 1MBq (53MBq/kg), 3 and 6 weeks after administration; cited from earlier work"}, "[5]": {"experiment": "Histological evaluation in monkeys", "assay_type": "in vivo, cynomolgus monkeys", "details": "9 MBq/kg, 24 h", "procedure": "as §2, §3"}, "[6]": {"experiment": "Hematological examination in monkeys", "assay_type": "in vivo, cynomolgus monkeys", "details": "for %Lymph / Hb / Ht / Platelet / RBC / WBC: monkeys, 9 MBq/kg i.v.", "procedure": "as §2, §1\nA blood cell counter was used for the measurements (CB-1010; ARKRAY, Inc., Kyoto, Japan). Red blood cell count (RBC), hemoglobin concentration (Hb), hematocrit (Ht), white blood cell count (WBC), platelet count (platelet), lymphocytes (%Lymph), monocytes (%Mon), and granulocytes (%Gra) were calculated. Plasma was analyzed using a dry clinical chemistry analyzer (Spotchem D-00 QR D-02; ARKRAY, Inc., Kyoto, Japan). The levels of aspartate aminotransferase (AST), alanine aminotransferase (ALT), gamma-glutamyl transpeptidase (γ-GTP), lactate dehydrogenase (LDH), alkaline phosphatase (ALP), creatine kinase (CK), amylase (AMY), total bilirubin (TBIL), creatinine (CRE), urea nitrogen (BUN), glucose (GLU), total protein (TP), albumin (ALB), total cholesterol (TCHO), triglyceride (TG), and electrolytes (Na, K, and Cl) were measured."}, "[7]": {"details": "mice, 12 MBq/kg, regarded as spontaneous lesion"}},
  "data": [
    {"smiles": "O=C(O)CC[C@H](NC(=O)N[C@@H](CCCCNC(=O)[C@@H](Cc1ccc2ccccc2c1)NC(=O)c1ccc(CNC(=O)[C@@H](CCC(=O)O)NC(=O)[C@@H](CCC(=O)O)NC(=O)Cc2ccc([211At])cc2)cc1)C(=O)O)C(=O)O", "note": "[[^211At]PSMA-5]", "values": [
      {"measurement": "metabolites in blood samples (TLC)", "setting": "[1]", "value": "no metabolites were detected"},
      {"measurement": "gross findings during necropsy", "setting": "[2]; expert evaluation", "value": "no gross abnormalities beyond spontaneous lesions"},
      {"measurement": "histological changes in the thyroid, testes, and kidneys compared to the control group", "setting": "[2]; mice, 5, 12 and 35 MBq/kg", "value": "no significant changes"},
      {"measurement": "single-cell necrosis/apoptosis of crypt epithelial cells in pyloric glands of the stomach, duodenum, jejunum", "setting": "[2]; mice, 5-35 MBq/kg, day 1", "value": "dose-dependent increase"},
      {"measurement": "tingible body macrophages in white pulp of the spleen and lymphoid follicles of mesenteric lymph nodes", "setting": "[2]; mice, 5-35 MBq/kg, day 1", "value": "dose-dependent increase"},
      {"measurement": "incidence of increased single-cell necrosis/apoptosis in striatal epithelial and serous cells of the salivary gland", "setting": "[2]; mice, 12 MBq/kg, day 1", "value": "1/10"},
      {"measurement": "incidence of atrophy of the seminal vesicles", "setting": "[2]; [7]", "value": "1/10"},
      {"measurement": "incidence of intraperitoneal mass", "setting": "[2]; [7]", "value": "1/10"},
      {"measurement": "incidence of cortical lymphopenia in the thymus", "setting": "[2]; mice, 35 MBq/kg, day 1", "value": "2/10"},
      {"measurement": "incidence of decrease in bone marrow cells", "setting": "[2]; mice, 35 MBq/kg, day 1", "value": "9/10"},
      {"measurement": "incidence of increased single-cell necrosis/apoptosis in striatal epithelial and serous cells of the salivary gland", "setting": "[2]; mice, 35 MBq/kg, day 1", "value": "7/10"},
      {"measurement": "incidence of mild localized hepatocellular necrosis in the liver", "setting": "[2]; mice, 35 MBq/kg, considered a spontaneously occurring lesion", "value": "1/10"},
      {"measurement": "degenerative changes in salivary glands, stomach, duodenum, jejunum, spleen, mesenteric lymph nodes, bone marrow, thymus", "setting": "[2]; mice, day 14 post-administration", "value": "not observed"},
      {"measurement": "time of peak kidney uptake post-administration", "setting": "[3]; ICR mice, 5 MBq/kg i.v.", "value": 6, "unit": "h"},
      {"measurement": "time of peak thyroid gland uptake", "setting": "[3]; ICR mice, 5 MBq/kg i.v.", "value": 3, "unit": "h"},
      {"measurement": "cumulative fecal excretion", "setting": "[3]; ICR mice, 5 MBq/kg i.v., 6 h", "value": "3.03 ± 1.90", "unit": "%ID"},
      {"measurement": "cumulative urinary excretion", "setting": "[3]; ICR mice, 5 MBq/kg i.v., 6 h", "value": "4.85 ± 1.76", "unit": "%ID"},
      {"measurement": "cumulative fecal excretion", "setting": "[3]; ICR mice, 5 MBq/kg i.v., 24 h", "value": "24.07 ± 8.54", "unit": "%ID"},
      {"measurement": "cumulative urinary excretion", "setting": "[3]; ICR mice, 5 MBq/kg i.v., 24 h", "value": "18.89 ± 4.57", "unit": "%ID"},
      {"measurement": "uptake in the thyroid", "setting": "[3]; mice, 3 h post-administration", "value": 51, "unit": "%ID/g"},
      {"measurement": "kidney histology", "setting": "[4]", "value": "regenerated tubules were observed"},
      {"measurement": "administration-related pathology in brain, salivary glands, thyroid, heart, liver, gallbladder, pancreas, rectum, kidney, bladder, adrenal glands, prostate", "setting": "[5]", "value": "No pathological abnormalities"},
      {"measurement": "crypt epithelial cells of the small and large (cecum) intestines", "setting": "[5]", "value": "Mild single-cell necrosis/apoptosis"},
      {"measurement": "tingible body macrophages in white pulp of the spleen, intraparotid and intrapulmonary lymph nodes", "setting": "[5]", "value": "mild increase"},
      {"measurement": "leukopenia (mainly lymphopenia)", "setting": "[6]; cynomolgus monkeys, 9 MBq/kg, 24 h after administration", "value": "mild but significant leukopenia"},
      {"measurement": "%Lymph", "setting": "[6]; 1 h", "value": "44.0 ± 16.0", "unit": "%"},
      {"measurement": "Hb", "setting": "[6]; 1 h", "value": "10.3 ± 1.4", "unit": "g/dL"},
      {"measurement": "Ht", "setting": "[6]; 1 h", "value": "32.9 ± 4.8", "unit": "%"},
      {"measurement": "Platelet", "setting": "[6]; 1 h", "value": "263.7 ± 33.0 10^3 cell/µL"},
      {"measurement": "RBC", "setting": "[6]; 1 h", "value": "4.30 ± 0.30 10^6 cell/µL"},
      {"measurement": "WBC", "setting": "[6]; 1 h", "value": "10.1 ± 0.7 10^3 cell/µL"},
      {"measurement": "%Lymph", "setting": "[6]; 3 h", "value": "52.0 ± 4.5", "unit": "%"},
      {"measurement": "Hb", "setting": "[6]; 3 h", "value": "11.2 ± 0.8", "unit": "g/dL"},
      {"measurement": "Ht", "setting": "[6]; 3 h", "value": "35.4 ± 2.5", "unit": "%"},
      {"measurement": "Platelet", "setting": "[6]; 3 h", "value": "306.8 ± 41.2 10^3 cell/µL"},
      {"measurement": "RBC", "setting": "[6]; 3 h", "value": "4.70 ± 0.00 10^6 cell/µL"},
      {"measurement": "WBC", "setting": "[6]; 3 h", "value": "6.7 ± 1.4 10^3 cell/µL"},
      {"measurement": "%Lymph", "setting": "[6]; 24 h", "value": "23.7 ± 1.1", "unit": "%"},
      {"measurement": "Hb", "setting": "[6]; 24 h", "value": "9.9 ± 0.5", "unit": "g/dL"},
      {"measurement": "Ht", "setting": "[6]; 24 h", "value": "31.8 ± 1.5", "unit": "%"},
      {"measurement": "Platelet", "setting": "[6]; 24 h", "value": "269.7 ± 60.8 10^3 cell/µL"},
      {"measurement": "RBC", "setting": "[6]; 24 h", "value": "4.20 ± 0.10 10^6 cell/µL"},
      {"measurement": "WBC", "setting": "[6]; 24 h", "value": "5.3 ± 0.8 10^3 cell/µL"}
    ]}
  ]
}
